The conditions of data set [1]: as known in the art; cited from earlier work.
Data set [2] is described as follows: ferric iron (Fe3+) binding / affinity / formation constant. From the text:
Each molecule of anguibactin chelates one ferric (Fe^3+ or Fe(III)) ion. Anguibactin also binds Ga(III).

A further data set is described as follows: calcium (Ca2+) affinity. Conditions: anguibactin. The format is binding.
A short description of the next data set: ferrous (Fe2+) affinity. The format is binding.
The next data set can be described thus: Ga(III) binding. Conditions: anguibactin. As to the method: The structure of anguibactin was determined as outlined in Jalal et al., J. Am. Chem. Soc. 111:292 (1989), and shown schematically in FIG. 2. Anguibactin has a molecular weight of 348 g/mol, which is about half the molecular weight of deferoxamine (657 g/mol). Anguibactin can be regarded as a form of catechol rather than a monophenol. It has a unique structure which bears some resemblance to pyochelin. See Llinas et al., Biochemistry 12:3836 (1973). Anguibactin has been identified as ω-N-hydroxy-ω-[[2'-(2'',3''-dihydroxyphenyl)thiazolin-4'-yl]-carboxy]histamine by crystal X-ray diffraction studies of its anhydro derivative, proton and ^13 C nuclear magnetic resonance spectroscopy of its deferri and Ga(III) complex, fast-atom bombardment (FAB) mass spectrometry, and chemical degradation.

Data set [3] is described as follows: removal of ferric ion from ferric hydroxide. The format is binding. Conditions: aqueous, pH between 7 and 8.
The nature of data set [4]: competitive binding assay, removal of Fe3+ from aerobactin. Conditions: competitive binding assays.
Data set [5] concerns transferrin. Briefly: removal of Fe3+ from transferrin. Conditions: anguibactin; competitive binding assays.
Data set [6] deals with iron-binding proteins in the fish host. Briefly: removal of iron from iron-binding proteins in the fish host. Conditions: in vivo.
Data set [7] is described as follows: removal of ferric iron from aqueous solutions.
In data set [8] the test system is human diploid fibroblast cells. Briefly: inhibition of 59Fe uptake by normal human diploid fibroblast cells (FIG. 3). The format is cell-based. Conditions: 59Fe-containing cell-growth medium. Here is the method: An experiment was conducted to characterize the chelation properties of anguibactin by examining its effect on iron uptake by mammalian cells in culture.
Normal human diploid fibroblast cells were mixed with ^59 Fe-containingcell-growth medium. Samples of the dosed cells were then incubated for increasing lengths of time. After each time period, the corresponding samples were rinsed to remove any free radioiron. The rinsed cells were treated with trypsin and the lysates precipitated with trichloroacetic acid. Radioactive counting of the precipitated lysates was performed using a Beckman counter. Addition of anguibactin and subsequent assay for radioiron in otherwise identical parallel samples yielded a measure of the capacity of the siderophore present in the cell-growth medium to interrupt the uptake of radioiron by the cultured cells.

The test system of another data set is rat heart cells. The data set is described as follows: inhibition of iron uptake by rat heart cells. The format is cell-based. The settings on record: non-immortalized cells, data not shown.
The nature of data set [9]: toxicity on injection into fish. The format is in vivo. Conditions: injection of 400 μl anguibactin. The text has this: (§1) Preliminary studies indicate that anguibactin toxicity is very low.
Data set [10] is described as follows: toxicity on injection into rabbits. The format is in vivo, rabbit. Conditions: injection of 400 μl.
Text: as §1

Data set [11] is described as follows: stability to acid hydrolysis. The format is physicochemical.
A short description of data set [12]: excretion of radioiron (59Fe) in urine and feces. It counts as in vivo, rats. Conditions: about 10 mg incubated with 59FeCl3, subcutaneous, urine and feces over a week. As to the method: To determine the ability to excrete chelated iron, a procedure similar to that generally used to evaluate iron chelators is employed. Trace amounts of ^59 FeCl3 are incubated in vitro with about 10 mg anguibactin and subcutaneously injected into normal subjects such as rats. Cumulative excretion of radioiron is measured during the subsequent week in urine and feces. Weak iron chelators are not able enhance ^59 Fe excretion relative to a control injected with ^59 FeCl3 only. […] Evaluation of the distribution of radioiron in urine and stool provides an indication of whether the siderophore-bound iron is removed from plasma by kidneys (urine) or by the liver followed by excretion to the bile (stool).

Another data set has as its system Vibrio anguillarum. The data set is described as follows: experimental infection of salmonid fishes, iron supply by siderophore for growth of avirulent strain. The format is in vivo. The settings on record: fish infected with wild-type V. anguillarum. The text has this: A mutant strain of Vibrio anguillarum termed 775:Tn1-5 was produced which contained the pJM1-derivative plasmid pJHC-91 in which a transposon element Tn1 was inserted into genetic unit I. This mutant strain can grow in vitro in iron-limited media only if the supernatant from strains containing the wild-type pJM1 plasmid, and thus plenty of anguibactin, is supplied. Therefore, strains harboring the pJHC-91 plasmid must be able to transport and incorporate iron from anguibactin but are not able to produce this anguibactin itself. Strains containing the pJHC-91 plasmid are able to synthesize the pOM2 outer membrane protein.

The nature of another data set: toxicity, general. The settings on record: preliminary studies.
For data set [13] the following is noted: theoretical; cited from earlier work.
In data set [14] the test system is transferrin. The settings on record: deferoxamine; cited from earlier work.
For another data set, the system named is ferritin. The settings on record: cited from earlier work.
Another data set concerns hemosiderin. Conditions: cited from earlier work.
The subject of another data set is cytochromes. Conditions: cited from earlier work.
A further data set concerns hemoglobin. The settings on record: cited from earlier work.
For data set [15] the following is noted: cited from earlier work.
For data set [16] the following is noted: cited from earlier work. The source holds these as a separate data set.
For data set [17] the following is noted: deferoxamine; cited from earlier work.
For data set [18] the following is noted: in vivo; cited from earlier work.
For data set [19] the following is noted: human, in vivo; cited from earlier work.
The next data set concerns Yersinia enterocolitica. The settings on record: in some cases; cited from earlier work.
The conditions of data set [20]: deferoxamine; cited from earlier work. The source holds these as a separate data set.

Here are results for three compounds from patent US5393777A, “Deferration using anguibactin siderophore” (State of Oregon Acting by and through the State Board of …, priority 1990, dated 1995).

SMILES strings stand for the structures. Entries after “also recorded” stand apart in the source; their conditions may differ. Like-named read-outs stand apart in the source and are kept apart here.

With `O=C(O)CN(CCN(CC(=O)O)CC(=O)O)CC(=O)O` [EDTA], in data set [1], the “toxicity of calcium chelators” value is given as “relatively toxic”.

On to `O=C(C1CSC(c2cccc(O)c2O)=N1)N(O)CCc1c[nH]cn1` (centres unmarked) [anguibactin, ω-N-hydroxy-ω-[[2'-(2'',3''-dihydroxyphenyl)thiazolin-4'-yl]-carboxy]histamine], for which the “affinity for ferric ions” value in [2] is recorded as “extremely high”. For the same compound, the “dependence of Fe3+ binding on pH” value in data set [2] is “dependent on pH”. The “ferric (Fe3+) ions chelated per molecule” value in data set [2] is “one”. For the same compound, the “iron chelating power compared with deferoxamine” value in data set [2] (from competitive binding data) is recorded as “more powerful iron chelator than the widely used deferoxamine”. Besides, in data set [2] (mildly alkaline conditions), the “Fe3+ binding in mildly alkaline conditions” value is “excellent binding can be achieved”. Also, in “calcium (Ca2+) affinity”, the “affinity for Ca2+ ions” value was “only a very weak affinity”. Further, the “affinity for ferrous (Fe2+) ions” value in the data set “ferrous (Fe2+) affinity” is reported as “only a very weak affinity; also recorded: little affinity”. In addition, in “Ga(III) binding”, the “binding of Ga(III)” value is on record as “binds Ga(III)”. Further, the “binding of metals other than iron known to be essential for bacterial metabolism” value in the data set “binding of other metals” was “does not bind any metal other than iron known to be essential for bacterial metabolism”. Besides, the “removal of ferric ion from ferric hydroxide” value in [3] is recorded as “remove ferric ion from ferric hydroxide”. Moreover, the “removal of Fe3+ from other siderophores such as aerobactin” value in data set [4] is “able to remove Fe^3+ from other siderophores such as aerobactin”. Also, in the data set on transferrin [5], the “removal of Fe3+ from transferrin” value is reported as “able to remove Fe^3+”. For the same compound, the “removal of iron from transferrin and other iron-binding proteins in the fish host” value in [6] is “very efficient in removing iron from aqueous solution as well as from transferrin and from other iron-binding proteins in the fish host”. Besides, in data set [7], the “removal of iron from aqueous solution” value is “capable of removing ferric iron from aqueous solutions, including cell-culture medium; also recorded: very efficient in removing iron from aqueous solution”. Further, the “inhibition of iron uptake by human fibroblast cells” value is “inhibits uptake, from a liquid medium, of iron by cultured human diploid fibroblast cells; also recorded: interrupts the flow of iron into human cells” in data set [8] and “inhibits iron uptake by living cells” in data set [8] (listed as Anguibactin). The “inhibition of iron uptake by rat heart cells” value in the data set with rat heart cells is on record as “substantially the same results”; in the data set on rat heart cells (listed as Anguibactin) it was “inhibits iron uptake by living cells”. In data set [9], the “adverse effect, fish” value is reported as “no discernable adverse effect”. Further, in data set [10], the “adverse effect, rabbits” value is “no discernable adverse effect”. The “cleavage by hydrochloric acid” value in [11] (6N hydrochloric acid) is “cleave anguibactin to 2,3-dihydroxybenzoic acid, dehydrocystine, and histamine”. The “acid hydrolysis below pH 3” value in data set [11] (environment more acidic than pH 3) is reported as “undergoes acid hydrolysis to at least a partial degree”. In addition, the “pH down to which the molecule remains intact” value in [11] (pH) is recorded as at least 3. Further, in data set [12], the excretion of radioiron result is “enhance excretion of radioiron”. Further, in the data set with Vibrio anguillarum, the “level of siderophore in blood and kidneys of infected fish” value was “sufficient to provide iron for considerable growth of the avirulent strain”. In the data set “solubility” (methanol), the solubility in methanol result is “freely soluble in water and methanol”. For the same compound, the solubility in water entry in the data set “solubility” is listed as “highly soluble in water”; in the data set “solubility” (listed as Anguibactin), “freely soluble in water”. Further, the toxicity entry is “very low” in “toxicity, general” and “very low toxicity” in “toxicity, general” (listed as Anguibactin).

Turning to `CC(=O)N(O)CCCCCNC(=O)CCC(=O)N(O)CCCCCNC(=O)CCC(=O)N(O)CCCCCN` [deferoxamine], the “capacity of binding ferric iron” value in [13] is “about 8.5 parts by weight”. In addition, in the data set on transferrin [14], the “removal of iron from transferrin” value is listed as “not readily from transferrin”. The “removal of iron from ferritin” value with ferritin is reported as “wrests iron from ferritin”. Besides, the “removal of iron from hemosiderin” value with hemosiderin was “wrests iron from ferritin and hemosiderin”. For the same compound, in the data set with cytochromes, the “removal of iron from cytochromes” value is on record as “substantially not at all from cytochromes”. Further, in the data set on hemoglobin, the “removal of iron from hemoglobin” value is “substantially not at all from cytochromes and hemoglobin”. In addition, the “Intravenous LD50, mice” value in data set [15] is given as 287 mg/kg. In addition, the “Intravenous LD50, rats” value in data set [16] is listed as 329 mg/kg. Besides, the acid hydrolysis result in data set [17] was “prone to acid hydrolysis”. Also, the “absorption after oral administration” value in data set [18] is reported as “poorly absorbed after oral administration”. In addition, the toxic reactions result in data set [19] was “toxic and can cause a number of reactions, including allergic reactions: pruritis, wheals, rash, and anaphylaxis; and dysuria, gastrointestinal symptoms, diarrhea, fever, leg cramps, hypotension, and tachycardia”. In addition, in the data set with Yersinia enterocolitica, the “effect on susceptibility of iron-overload patients to Yersinia enterocolitica infections” value was “enhanced this susceptibility, resulting in generalized infections”. For the same compound, the excretion of radioiron result in data set [20] is given as “enhance excretion of radioiron”.
